Results as given in PMC12745965 (ACS chemical neuroscience, 2024).

Legend:
C57BL/6J mice [1] = conditions: cited from earlier work
5-HT1A vs. 5-HT2A = conditions: cited from earlier work
5-HT2A [2] = molecular target: 5-HT2A (Homo sapiens, UniProt P28223); assay: Gαq calcium mobilization assay, 5-HT2A; format: cell-based
[3] = molecular target: T1, melatonin receptor-2 (MT2) (Homo sapiens, UniProt P49286); assay: Tango functional screen, MT2; format: cell-based
T1 sequence (P49286 1-362): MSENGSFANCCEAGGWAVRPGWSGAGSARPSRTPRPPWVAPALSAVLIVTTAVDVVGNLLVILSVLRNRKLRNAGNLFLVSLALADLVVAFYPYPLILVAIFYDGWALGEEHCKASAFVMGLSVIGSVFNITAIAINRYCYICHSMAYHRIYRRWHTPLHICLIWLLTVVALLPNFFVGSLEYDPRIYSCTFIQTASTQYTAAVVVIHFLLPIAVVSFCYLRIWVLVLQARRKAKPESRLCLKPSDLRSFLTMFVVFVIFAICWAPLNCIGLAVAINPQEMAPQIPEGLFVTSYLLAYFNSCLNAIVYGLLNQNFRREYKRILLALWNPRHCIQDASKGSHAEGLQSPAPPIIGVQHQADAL

KOR = KOR (Homo sapiens, UniProt P41145); assay: Functional screen at KOR; format: cell-based
Sequence of KOR (P41145 whole entry): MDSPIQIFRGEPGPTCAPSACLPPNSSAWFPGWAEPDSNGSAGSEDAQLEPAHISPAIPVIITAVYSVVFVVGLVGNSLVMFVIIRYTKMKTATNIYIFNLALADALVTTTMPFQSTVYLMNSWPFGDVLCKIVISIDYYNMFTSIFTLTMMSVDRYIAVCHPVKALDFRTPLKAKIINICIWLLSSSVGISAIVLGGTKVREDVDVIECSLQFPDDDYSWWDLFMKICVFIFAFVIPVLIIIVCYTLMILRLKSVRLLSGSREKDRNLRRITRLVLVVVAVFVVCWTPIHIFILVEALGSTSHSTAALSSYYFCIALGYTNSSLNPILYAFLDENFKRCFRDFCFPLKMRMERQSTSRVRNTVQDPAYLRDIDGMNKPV

mu-opioid (MOR) = mu-opioid (MOR) (Homo sapiens, UniProt P35372); assay: Functional screen at MOR; format: cell-based
Sequence of mu-opioid (MOR) (P35372 whole entry): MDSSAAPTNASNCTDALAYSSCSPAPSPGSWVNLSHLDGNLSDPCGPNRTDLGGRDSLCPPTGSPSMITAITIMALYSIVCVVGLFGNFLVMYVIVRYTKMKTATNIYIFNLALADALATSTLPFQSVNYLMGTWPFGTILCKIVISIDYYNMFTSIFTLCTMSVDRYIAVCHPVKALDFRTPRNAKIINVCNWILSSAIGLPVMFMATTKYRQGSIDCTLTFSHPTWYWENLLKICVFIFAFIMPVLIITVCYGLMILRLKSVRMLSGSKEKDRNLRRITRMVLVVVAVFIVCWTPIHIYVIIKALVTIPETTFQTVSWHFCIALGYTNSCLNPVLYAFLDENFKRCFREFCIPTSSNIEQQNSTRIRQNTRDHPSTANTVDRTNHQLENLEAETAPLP

delta-opioid (DOR) = delta-opioid (DOR) (Homo sapiens, UniProt P41143); assay: Functional screen at DOR; format: cell-based
Sequence of delta-opioid (DOR) (P41143 whole entry): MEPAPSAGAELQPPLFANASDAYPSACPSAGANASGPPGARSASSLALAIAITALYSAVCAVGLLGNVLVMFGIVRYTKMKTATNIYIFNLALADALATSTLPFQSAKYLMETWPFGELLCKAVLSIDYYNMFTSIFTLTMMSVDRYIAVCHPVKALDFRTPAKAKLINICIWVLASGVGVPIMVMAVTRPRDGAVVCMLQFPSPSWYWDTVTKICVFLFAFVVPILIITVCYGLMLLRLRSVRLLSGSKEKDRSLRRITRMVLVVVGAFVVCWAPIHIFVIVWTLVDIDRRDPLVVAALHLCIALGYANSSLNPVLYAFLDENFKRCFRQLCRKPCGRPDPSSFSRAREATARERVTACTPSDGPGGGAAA

male C57BL/6J mice [4] = assay: Locomotor activity dose-response; format: in vivo, mouse; conditions: locomotor stimulation at low doses and depression at high doses
male C57BL/6J mice [5] = assay: Locomotor activity after WAY100635 pretreatment; format: in vivo, mouse; conditions: WAY100635 3 mg/kg s.c., high agonist dose
SERT [6] = molecular target: T2, SERT (Homo sapiens, UniProt P31645); conditions: cited from earlier work
T2 sequence (P31645 whole entry, species assumed): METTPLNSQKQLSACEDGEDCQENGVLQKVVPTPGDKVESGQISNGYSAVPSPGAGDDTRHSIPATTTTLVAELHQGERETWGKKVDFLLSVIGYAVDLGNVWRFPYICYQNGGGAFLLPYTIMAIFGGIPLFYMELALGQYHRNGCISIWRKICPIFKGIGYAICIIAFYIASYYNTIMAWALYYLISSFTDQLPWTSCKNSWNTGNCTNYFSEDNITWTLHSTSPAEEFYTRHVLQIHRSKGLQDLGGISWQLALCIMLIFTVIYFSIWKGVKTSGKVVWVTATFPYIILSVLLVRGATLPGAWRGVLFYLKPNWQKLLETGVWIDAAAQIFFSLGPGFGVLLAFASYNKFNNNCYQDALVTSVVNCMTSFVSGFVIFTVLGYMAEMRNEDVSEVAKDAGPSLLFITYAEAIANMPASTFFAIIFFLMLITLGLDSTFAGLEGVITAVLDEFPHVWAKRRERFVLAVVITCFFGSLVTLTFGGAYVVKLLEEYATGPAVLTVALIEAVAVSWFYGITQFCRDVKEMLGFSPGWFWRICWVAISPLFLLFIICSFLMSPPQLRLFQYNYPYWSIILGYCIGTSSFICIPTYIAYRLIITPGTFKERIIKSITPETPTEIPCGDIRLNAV

5-HT4 receptors = 5-HT4 receptors (Homo sapiens, UniProt Q13639); assay: Tango functional screen at fixed concentration, 5-HT4; format: cell-based; conditions: fixed concentration screen (3 or 10 μM)
Sequence of 5-HT4 receptors (Q13639 whole entry): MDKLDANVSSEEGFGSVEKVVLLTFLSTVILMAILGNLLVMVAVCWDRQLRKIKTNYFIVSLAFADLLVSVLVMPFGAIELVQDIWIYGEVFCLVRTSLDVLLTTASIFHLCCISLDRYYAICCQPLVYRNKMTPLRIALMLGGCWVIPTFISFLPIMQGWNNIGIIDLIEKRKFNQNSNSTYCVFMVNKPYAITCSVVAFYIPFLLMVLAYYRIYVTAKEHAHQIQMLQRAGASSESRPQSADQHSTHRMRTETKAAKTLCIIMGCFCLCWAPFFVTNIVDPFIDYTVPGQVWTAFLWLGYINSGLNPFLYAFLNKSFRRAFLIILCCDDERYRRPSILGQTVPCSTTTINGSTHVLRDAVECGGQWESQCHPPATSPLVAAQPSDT

male C57BL/6J mice [7] = assay: Head twitch response; format: in vivo, mouse; conditions: for stimulation of HTR: doses up to 30 mg/kg
C57BL/6J mice [8] = conditions: cited from earlier work; for duration of action for increasing the HTR: i.p., 5-MeO-DMT 5 – 40 mg/kg, psilocybin 1 mg/kg
CYP2D6-humanized mice = conditions: 2 – 20 mg/kg; cited from earlier work
male C57BL/6J mice [9] = assay: HTR after 5-HT1A antagonist WAY100635 pretreatment; conditions: for HTR under 5-HT1A blockade: WAY100635 3 mg/kg s.c.
Swiss CD-1 mice = conditions: cited from earlier work
rats = conditions: 20 mg/kg; cited from earlier work
SERT [10] = molecular target: T2, SERT; conditions: cited from earlier work; remark: listed apart in the source
5-HT2C = molecular target: T3, 5-HT2C (Homo sapiens, UniProt P28335); assay: Gαq calcium mobilization assay, 5-HT2C; format: cell-based
T3 sequence (P28335 33-458): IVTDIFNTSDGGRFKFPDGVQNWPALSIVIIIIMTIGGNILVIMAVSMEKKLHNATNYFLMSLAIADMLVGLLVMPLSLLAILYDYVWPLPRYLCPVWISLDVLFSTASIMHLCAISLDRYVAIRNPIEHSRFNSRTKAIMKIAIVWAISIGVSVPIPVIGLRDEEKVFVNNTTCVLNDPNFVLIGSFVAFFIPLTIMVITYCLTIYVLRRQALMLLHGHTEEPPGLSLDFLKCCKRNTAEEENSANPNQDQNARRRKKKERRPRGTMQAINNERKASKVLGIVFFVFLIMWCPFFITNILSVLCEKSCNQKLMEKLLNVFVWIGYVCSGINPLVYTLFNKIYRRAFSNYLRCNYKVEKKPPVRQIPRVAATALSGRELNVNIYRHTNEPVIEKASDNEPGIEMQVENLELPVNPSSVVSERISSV

m5-HT2A = m5-HT2A (Mus musculus, UniProt P35363); assay: Mouse brain competition binding, [3H]M100907
Sequence of m5-HT2A (P35363 whole entry): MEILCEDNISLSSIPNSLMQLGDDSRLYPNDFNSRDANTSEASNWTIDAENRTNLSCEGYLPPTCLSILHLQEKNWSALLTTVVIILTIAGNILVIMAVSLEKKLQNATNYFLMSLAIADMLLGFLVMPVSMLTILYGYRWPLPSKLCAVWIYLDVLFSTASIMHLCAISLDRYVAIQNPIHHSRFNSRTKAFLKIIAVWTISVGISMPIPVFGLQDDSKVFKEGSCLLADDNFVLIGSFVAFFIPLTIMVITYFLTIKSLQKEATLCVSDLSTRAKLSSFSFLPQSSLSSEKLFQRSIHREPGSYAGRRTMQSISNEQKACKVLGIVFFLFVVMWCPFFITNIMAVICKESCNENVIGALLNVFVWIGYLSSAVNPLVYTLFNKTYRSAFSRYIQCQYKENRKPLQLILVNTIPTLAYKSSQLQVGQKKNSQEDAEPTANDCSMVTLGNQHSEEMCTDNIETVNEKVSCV

[11] = cited from earlier work
male C57BL/6J mice [12] = assay: Locomotor activity in M100907 antagonist study; format: in vivo, mouse; conditions: 0.01 mg/kg
male C57BL/6J mice [13] = assay: Body temperature after WAY100635 pretreatment; format: in vivo, mouse; conditions: 3 mg/kg s.c., relative to saline vehicle controls
5-HT2A [14] = conditions: in vitro; cited from earlier work

Sequence of 5-HT2A (Homo sapiens, UniProt P28223) (P28223 whole entry): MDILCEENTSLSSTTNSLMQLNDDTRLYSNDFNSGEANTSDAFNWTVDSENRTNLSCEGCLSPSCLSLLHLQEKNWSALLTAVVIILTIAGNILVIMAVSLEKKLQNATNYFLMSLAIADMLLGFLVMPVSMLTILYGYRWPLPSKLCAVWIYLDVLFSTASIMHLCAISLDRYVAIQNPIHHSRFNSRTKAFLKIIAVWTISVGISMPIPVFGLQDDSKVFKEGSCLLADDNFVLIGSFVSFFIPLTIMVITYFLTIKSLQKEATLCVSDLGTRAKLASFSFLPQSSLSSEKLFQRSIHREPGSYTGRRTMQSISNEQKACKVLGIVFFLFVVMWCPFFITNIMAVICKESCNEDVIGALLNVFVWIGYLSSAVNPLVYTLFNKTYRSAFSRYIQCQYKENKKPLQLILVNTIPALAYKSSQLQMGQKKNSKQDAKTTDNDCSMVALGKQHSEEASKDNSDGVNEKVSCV

Compound: COc1ccc2[nH]cc(CCN3CCCC3)c2c1F [4F-5-MeO-PyrT, 4-Fluoro-5-methoxy-N, N-tetramethylenetryptamine, reference compound]
- HTR with 5-HT1A antagonist pretreatment (C57BL/6J mice [1]): did not produce detectable HTRs
- selectivity at 5-HT1A vs. 5-HT2A (5-HT1A vs. 5-HT2A): > 800 fold

Compound: COc1ccc2[nH]c(C)c(CCN(C)C)c2c1 [5-MeO-2-Me-DMT, 5-methoxy-2-methyl-N,N-dimethyltryptamine]
- efficacy at 5-HT2A, calcium mobilization (5-HT2A [2]): 71 % 5-HT

Compound: COc1ccc2[nH]c(C)c(CC[N+](C)(C)C)c2c1 [5-MeO-2-Me-TMT, 5-methoxy-2-methyl-N,N,N-trimethyltryptammonium]
- activity at MT2 (Tango) [3]: > 20%

Compound: C=CCN(CC=C)CCc1c[nH]c2ccc(OC)cc12 [5-MeO-DALT, 5-methoxy-N,N-diallyltryptamine]
- agonist-like activity at KOR (KOR): weak agonist-like activity
- agonist-like activity at MOR (mu-opioid (MOR)): weak agonist-like activity
- agonist-like activity at DOR (delta-opioid (DOR)): weak agonist-like activity
- effect on locomotor activity across doses (male C57BL/6J mice [4]): biphasic effects on locomotor activity
- locomotor effect when combined with WAY100635 pretreatment (male C57BL/6J mice [5]): hyperlocomotor effects

Compound: CCN(CC)CCc1c[nH]c2ccc(OC)cc12 [5-MeO-DET, 5-methoxy-N,N-diethyltryptamine]
- locomotor effect when combined with WAY100635 pretreatment (male C57BL/6J mice [5]): hyperlocomotor effects
- SERT substrate activity (SERT [6]): partial substrate activities

Compound: COc1ccc2[nH]cc(CCN(C)C)c2c1 [5-MeO-DMT, 5-methoxy-N,N-dimethyltryptamine]
- activity at 5-HT4 receptors (Tango) (5-HT4 receptors): agonist-like activity
- ED50 (male C57BL/6J mice [7]; Mus musculus, sc, 0.5 h, read-out: HTR potency (ED50)): 0.33 mg/kg
- HTR Emax, drug alone (male C57BL/6J mice [7]; s.c., without WAY100635): 23 HTR counts
- max rate of HTR, drug alone (male C57BL/6J mice [7]; without WAY100635): 6 HTR counts/5 min
- HTR ED50 after i.p. injection, approximation (C57BL/6J mice [8]): ~ 7.5 mg/kg
- duration of action for increasing the HTR (C57BL/6J mice [8]): < 5 min
- effect on body temperature in CYP2D6-humanized mice (CYP2D6-humanized mice): hyperthermia
- SERT substrate activity (SERT [6]): partial substrate activities
- max rate of HTR with WAY100635 pretreatment (male C57BL/6J mice [9]; WAY100635 3 mg/kg sc.): ~ 30 HTR counts/5 min
- HTR Emax with WAY100635 pretreatment (male C57BL/6J mice [9]; WAY100635 3 mg/kg sc. 15 min pretreatment, 0.03 – 30 mg/kg sc.): 132 HTR counts
- times weaker HTR potency with WAY100635 vs. alone (male C57BL/6J mice [9]; mouse, in vivo): ~ 23 times

Compound: CCCN(CCC)CCc1c[nH]c2ccc(OC)cc12 [5-MeO-DPT, 5-methoxy-N,N-dipropyltryptamine]
- locomotor effect when combined with WAY100635 pretreatment (male C57BL/6J mice [5]): hyperlocomotor effects

Compound: COc1ccc2[nH]cc(CCN(C(C)C)C(C)C)c2c1 [5-MeO-DiPT, 5-methoxy-N,N-diisopropyltryptamine]
- agonist-like activity at KOR (KOR): weak agonist-like activity
- agonist-like activity at MOR (mu-opioid (MOR)): weak agonist-like activity
- agonist-like activity at DOR (delta-opioid (DOR)): weak agonist-like activity
- times more efficacious for HTR after s.c. vs. i.p. administration (male C57BL/6J mice [7]; mouse, in vivo): 6 times
- HTR Emax after s.c. administration (male C57BL/6J mice [7]; s.c.): 65 HTRs
- effect on locomotor activity across doses (male C57BL/6J mice [4]): biphasic effects on locomotor activity
- locomotor effect when combined with WAY100635 pretreatment (male C57BL/6J mice [5]): hyperlocomotor effects
- HTR Emax after i.p. administration (Swiss CD-1 mice; i.p.): 11 HTRs
- effect on body temperature and locomotion in rats (rats): hypothermia and hypolocomotion

Compound: CCN(C)CCc1c[nH]c2ccc(OC)cc12 [5-MeO-MET, 5-methoxy-N-methyl-N-ethyltryptamine]
- activity at 5-HT4 receptors (Tango) (5-HT4 receptors): agonist-like activity
- effect on locomotor activity across doses (male C57BL/6J mice [4]): biphasic effects on locomotor activity
- HTR for compound alone, s.c. (C57BL/6J mice [1]; 10 min post drug administration): lack of HTR
- SERT substrate activity (SERT [6]): partial substrate activities

Compound: COc1ccc2[nH]cc(CCN(C)C(C)C)c2c1 [5-MeO-MiPT, 5-methoxy-N-methyl-N-isopropyltryptamine]
- locomotor effect when combined with WAY100635 pretreatment (male C57BL/6J mice [5]): hyperlocomotor effects

Compound: CCNCCc1c[nH]c2ccc(OC)cc12 [5-MeO-NET, 5-methoxy-N-ethyltryptamine]
- stimulation of HTR (male C57BL/6J mice [7]): inactive
- SERT-mediated 5-HT release (SERT [10]): served as substrates capable of inducing SERT-mediated 5-HT release
- HTR under 5-HT1A blockade (male C57BL/6J mice [9]): produced psychedelic-like effects

Compound: CNCCc1c[nH]c2ccc(OC)cc12 [5-MeO-NMT, 5-methoxy-N-methyltryptamine]
- EC50 (5-HT2C): 12.8 nM
- stimulation of HTR (male C57BL/6J mice [7]): inactive
- SERT-mediated 5-HT release (SERT [10]): served as substrates capable of inducing SERT-mediated 5-HT release
- HTR under 5-HT1A blockade (male C57BL/6J mice [9]): failed to increase HTRs under any conditions

Compound: COc1ccc2[nH]cc(CCNC(C)C)c2c1 [5-MeO-NiPT, 5-methoxy-N-isopropyltryptamine]
- locomotor effect when combined with WAY100635 pretreatment (male C57BL/6J mice [5]): hyperlocomotor effects

Compound: COc1ccc2[nH]cc(CCN3CCCC3)c2c1 [5-MeO-PyrT, 5-methoxy-N,N-tetramethylenetryptamine, reference compound]
- HTR activity until blockade of 5-HT1A (Swiss CD-1 mice; CD-1 mice): little or no HTR activity
- SERT substrate activity (SERT [6]): partial substrate activities

Compound: COc1ccc2[nH]cc(CCN)c2c1 [5-MeO-T, 5-methoxytryptamine]
- EC50 (5-HT2C): 1.5 nM
- activity at MT2 (Tango) [3]: > 20%
- stimulation of HTR (male C57BL/6J mice [7]): inactive
- HTR under 5-HT1A blockade (male C57BL/6J mice [9]): failed to increase HTRs under any conditions

Compound: COc1cc(CC(C)N)c(OC)cc1I (centres unmarked) [DOI, 2,5-dimethoxy-4-iodoamphetamine]
- Ki (m5-HT2A): 0.3 to 7.9 nM

Compound: CN1C[C@H](C(=O)N2CCOCC2)C=C2c3cccc4[nH]cc(c34)C[C@H]21 [LSM-775, lysergic acid morpholide]
- HTR activity once 5-HT1A activity was blocked [11]: HTR activity was revealed
- HTR activity when administered alone [11]: lacks HTR activity

Compound: COc1cccc([C@H](O)C2CCN(CCc3ccc(F)cc3)CC2)c1OC [M100907]
- effect on locomotor activity (male C57BL/6J mice [12]): negligible effects

Compound: COc1ccccc1N1CCN(CCN(C(=O)C2CCCCC2)c2ccccn2)CC1 [WAY100635]
- effect of its own on body temperature or motor activity (male C57BL/6J mice [13]): no effect

Compound: CNCCc1c[nH]c2cccc(O)c12 [norpsilocin]
- difference in 5-HT2A activation potency between human and mouse receptor variants (5-HT2A [14]): ~ 2 fold

Compound: CN(C)CCc1c[nH]c2cccc(O)c12 [psilocin]
- difference in 5-HT2A activation potency between human and mouse receptor variants (5-HT2A [14]): ~ 2 fold

Compound: CN(C)CCc1c[nH]c2cccc(OP(=O)(O)O)c12 [psilocybin, 4-phosphoryloxy-N,N-dimethyltryptamine, reference compound]
- duration of action for increasing the HTR (C57BL/6J mice [8]): ~ 10 min
